Test results: patent publication US9943569B2, “Method for preventing or reducing postoperative pulmonary complications” (OSAKA UNIVERSITY, priority 2015, dated 2018)

Tests used:
[1] = system: patients undergoing esophagectomy; assay: Postoperative complications according to the Clavien-Dindo classification; type: in vivo, human
Description: Forty patients with primary esophageal cancer who underwent esophagectomy were selected to participate in a randomized, placebo-controlled phase II study. The patients were selected based on the following eligibility criteria: (1) thoracic esophageal cancer treated by performing radical esophagectomy with gastric tube reconstruction; (2) age 20 to 75 years; (3) adequate functioning of major organs; (4) no other active malignancies; and (5) provision of written informed consent. The following exclusions criteria were used: (1) preoperative diagnosis of esophageal cancer invasion to the aorta or trachea and other organs; (2) patients with multiple cancer; (3) severe respiratory problems, such as emphysema; (4) patients with prior ischemic heart disease; (5) liver cirrhosis or active hepatitis; (6) renal failure requiring dialysis treatment; (7) poorly controlled diabetes mellitus or disease requiring insulin treatment; (8) consecutive use of steroids; and (9) mental disorder. The patients were randomly divided into a ghrelin group and a placebo group at a 1:1 ratio. The approach for thoracic manipulation (i.e., open or thoracoscopic surgery) was used as the only stratification factor. Group allocation was performed before the initiation of surgery. The study was performed in a double-blind manner, and an independent researcher assessed outcomes.
(§1) The primary endpoint of this study was SIRS duration. The secondary endpoints were postoperative complications, serum C-reactive protein (CRP) and IL-6 levels, time required to attain a positive nitrogen balance, and changes in body weight and body composition. Postoperative complications were defined as adverse events caused by surgery. Patients received an intravenous continuous infusion of ghrelin (0.5 μg/kg/h) or placebo (pure saline) for 5 days postoperatively. Ghrelin was diluted to a final volume of 48 mL with saline, and the solution was administered at a rate of 2 mL/h by using an infusion pump through a central venous catheter inserted into the right subclavian vein. The same amount of ghrelin was administered via intravenous infusion during the 5 days of treatment; the dose was calculated on the basis of body weight on the day before surgery. Patients in the placebo group received the corresponding infusion containing pure saline using same procedure.
(§2) Blood sampling was performed at the following 7 time points: before surgery; 2 hours after initiation of surgery (during thoracotomy); 4 hours after initiation of surgery (during laparotomy); and on PODs 1, 3, 7, and 10. Complete blood count was performed every day for at least 10 PODs. If the leukocyte count was not within the normal range on POD10, complete blood counts were performed daily until it was within the normal range for 3 consecutive days. SIRS was diagnosed according to the criteria proposed by the American College of Chest Physicians/Society of Critical Care Medicine Consensus Conference^32 and when 2 or more of the following criteria were present: (1) body temperature less than 36° C. or more than 38° C.; (2) heart rate more than 90 beats per minute; (3) tachypnea with more than 20 breaths per minute or an arterial partial pressure of carbon dioxide less than 32 mm Hg; and (4) white blood cell count less than 4000 cells/mm^3, >12,000 cells/mm^3, or an immature (band) form more than 10%. Postoperative complications were evaluated according to the Clavien-Dindo classification.^33 Grade I required no treatment, grade II required medical therapy, grade Ma required interventions but not general anesthesia, grade Mb required general anesthesia, grade IV represented life-threatening states that required intensive care, and grade V represented death.

[2] = system: interleukin-6 (IL-6); assay: Postoperative change in serum IL-6 (enzyme immunoassay); type: in vivo, human; settings: n=20
Protocol: as §1, §2
(§3) Sampled blood was immediately transferred into a chilled glass tube containing disodium ethylenediaminetetraacetic acid for plasma sampling or a separating agent for serum sampling, and the samples were then centrifuged at 4° C. Plasma samples were mixed with a 10% volume of 1 N HCl and stored at −80° C. Serum samples were directly stored at −80° C. Sandwich-type enzyme immunoassay kits were used to measure levels of plasma active ghrelin, des-acyl ghrelin, and serum IL-6 according to the manufacturers' protocols (for ghrelin: Mitsubishi Kagaku Iatron, Inc, Tokyo, Japan; for IL-6: R&D Systems, Minneapolis, Minn.). Total plasma ghrelin levels were calculated as the active ghrelin level plus the des-acyl ghrelin level.^34 An Access 2 kit, a chemiluminescent enzyme immunoassay (Beckman Coulter, Inc, Brea, Calif.), was used to measure serum GH levels.

[3] = system: patients undergoing esophagectomy; assay: Laboratory tests, nutrition status and hormone assays, preoperative and POD7; type: in vivo, human
Protocol: as §1, §2, §3

[4] = system: patients undergoing esophagectomy; assay: Time required to attain positive nitrogen balance; type: in vivo, human; settings: ghrelin 0.5 μg/kg/h continuous i.v. for 5 days, n=20
Protocol: as §1

[5] = system: GH secretion; assay: Mode of ghrelin administration and GH secretion (unpublished data); type: in vivo; settings: continuous infusion vs periodic injection
[6] = ghrelin 0.5 μg/kg/h continuous i.v. for 5 days, n=20

SMILES: CCCCCCCC(=O)OC[C@H](NC(=O)[C@H](CO)NC(=O)CN)C(=O)N[C@@H](Cc1ccccc1)C(=O)N[C@@H](CC(C)C)C(=O)N[C@@H](CO)C(=O)N1CCC[C@H]1C(=O)N[C@@H](CCC(=O)O)C(=O)N[C@@H](Cc1cnc[nH]1)C(=O)N[C@@H](CCC(N)=O)C(=O)N[C@@H](CCCNC(=N)N)C(=O)N[C@H](C(=O)N[C@@H](CCC(N)=O)C(=O)N[C@@H](CCC(N)=O)C(=O)N[C@@H](CCCNC(=N)N)C(=O)N[C@@H](CCCCN)C(=O)N[C@@H](CCC(=O)O)C(=O)N[C@@H](CO)C(=O)N[C@@H](CCCCN)C(=O)N[C@@H](CCCCN)C(=O)N1CCC[C@H]1C(=O)N1CCC[C@H]1C(=O)N[C@@H](C)C(=O)N[C@@H](CCCCN)C(=O)N[C@@H](CC(C)C)C(=O)N[C@@H](CCC(N)=O)C(=O)N1CCC[C@H]1C(=O)N[C@@H](CCCNC(=N)N)C(=O)O)C(C)C [ghrelin]
- Anastomotic leak, number of patients ([1]; Grade 0, n=20): 19
- Arrhythmia, number of patients ([1]; Grade 0, n=20): 19
- Bleeding, number of patients ([1]; Grade 0, n=20): 20
- Lymphorrhea, number of patients ([1]; Grade 0, n=20): 20
- Pneumonia, atelectasis, number of patients ([1]; Grade 0, n=20): 14
- Recurrent nerve paralysis, number of patients ([1]; Grade 0, n=20): 18
- Wound infection, number of patients ([1]; Grade 0, n=20): 19
- Anastomotic leak, number of patients ([1]; Grade I, II, n=20): 1
- Arrhythmia, number of patients ([1]; Grade I, II, n=20): 1
- Bleeding, number of patients ([1]; Grade I, II, n=20): 0
- Lymphorrhea, number of patients ([1]; Grade I, II, n=20): 0
- Pneumonia, atelectasis, number of patients ([1]; Grade I, II, n=20): 4
- Recurrent nerve paralysis, number of patients ([1]; Grade I, II, n=20): 2
- Wound infection, number of patients ([1]; Grade I, II, n=20): 1
- Anastomotic leak, number of patients ([1]; Grade III, IV, n=20): 0
- Arrhythmia, number of patients ([1]; Grade III, IV, n=20): 0
- Bleeding, number of patients ([1]; Grade III, IV, n=20): 0
- Lymphorrhea, number of patients ([1]; Grade III, IV, n=20): 0
- Pneumonia, atelectasis, number of patients ([1]; Grade III, IV, n=20): 2
- Recurrent nerve paralysis, number of patients ([1]; Grade III, IV, n=20): 0
- Wound infection, number of patients ([1]; Grade III, IV, n=20): 0
- Postoperative complications of higher than grade 1 (Clavien-Dindo), number of patients [1, 6]: 10
- Postoperative complications of higher than grade 1 (Clavien-Dindo), share of patients [1, 6]: 50%
- incidence of pulmonary complications, including postoperative pneumonia and atelectasis, versus placebo group ([1]; ghrelin 0.5 μg/kg/h continuous i.v. for 5 days, P=0.016): significantly lower
- Serum IL-6 ([2]; POD1): 95.2 ± 131.0 pg/mL
- Serum IL-6 ([2]; POD3): 43.1 ± 47.1 pg/mL
- Serum IL-6 ([2]; POD3, listed as Ghrelin): 43.1 ± 47.1 pg/mL
- Serum IL-6 ([2]; POD7): 15.3 ± 11.3 pg/mL
- Serum IL-6 ([2]; POD10): 14.2 ± 17.9 pg/mL
- Serum IL-6 ([2]; Preoperative (baseline)): 4.3 ± 4.8 pg/mL
- Alanine aminotransferase ([3]; Postoperative (POD7)): 40.6 ± 24.6 IU/L
- Albumin ([3]; Postoperative (POD7)): 2.99 ± 0.45 g/dL
- Asparate aminotransferase ([3]; Postoperative (POD7)): 34.0 ± 15.9 IU/L
- Blood urea nitrogen ([3]; Postoperative (POD7)): 19.3 ± 6.8 mg/dL
- Choline esterase ([3]; Postoperative (POD7)): 154.1 ± 50.7 IU/L
- Creatinine ([3]; Postoperative (POD7)): 0.77 ± 0.19
- Growth hormone ([3]; Postoperative (POD7)): 1.08 ± 1.16 ng/mL
- Hemoglobin ([3]; Postoperative (POD7)): 10.1 ± 1.3 g/dL
- Leukocytes ([3]; Postoperative (POD7)): 9068 ± 2633 /mm
- Lymphocytes ([3]; Postoperative (POD7)): 1380 ± 495 /mm
- Retinol binding protein ([3]; Postoperative (POD7)): 3.63 ± 1.56 mg/dL
- Total bilirubin ([3]; Postoperative (POD7)): 1.25 ± 0.80 mg/dL
- Total protein ([3]; Postoperative (POD7)): 5.66 ± 0.70 g/dL
- Transferrin ([3]; Postoperative (POD7)): 146.4 ± 35.3 mg/dL
- Transthyretin ([3]; Postoperative (POD7)): 20.1 ± 6.7 mg/dL
- Alanine aminotransferase ([3]; Preoperative (baseline)): 18.3 ± 14.1 IU/L
- Albumin ([3]; Preoperative (baseline)): 3.78 ± 0.50 g/dL
- Asparate aminotransferase ([3]; Preoperative (baseline)): 20.2 ± 7.2 IU/L
- Blood urea nitrogen ([3]; Preoperative (baseline)): 15.1 ± 4.7 mg/dL
- Choline esterase ([3]; Preoperative (baseline)): 263.5 ± 83.8 IU/L
- Creatinine ([3]; Preoperative (baseline)): 0.88 ± 0.21
- Growth hormone ([3]; Preoperative (baseline)): 0.51 ± 0.54 ng/mL
- Hemoglobin ([3]; Preoperative (baseline)): 11.3 ± 1.5 g/dL
- Leukocytes ([3]; Preoperative (baseline)): 5472 ± 1970 /mm
- Lymphocytes ([3]; Preoperative (baseline)): 1644 ± 585 /mm
- Retinol binding protein ([3]; Preoperative (baseline)): 4.86 ± 1.71 mg/dL
- Total bilirubin ([3]; Preoperative (baseline)): 0.58 ± 0.20 mg/dL
- Total protein ([3]; Preoperative (baseline)): 6.44 ± 0.59 g/dL
- Transferrin ([3]; Preoperative (baseline)): 198.1 ± 30.8 mg/dL
- Transthyretin ([3]; Preoperative (baseline)): 28.8 ± 9.1 mg/dL
- time required to attain positive nitrogen balance [4]: 2.6 ± 1.6 days
- GH secretion by mode of ghrelin administration [5]: continuous infusion was better than periodic injection
